Structures can show the parent of a compound that is named as a salt. Where two headings read alike, the source gives them in different places.
Tests used:
Test in all cases: AK assay 384-well format, Prestwick library screening
E. faecium = format: cell-based, Enterococcus faecium; conditions: for fold induction at 50 µM: Enterococcus faecium, 3 h
E. coli = format: cell-based, Escherichia coli; conditions: for fold induction at 50 µM: Escherichia coli, 3 h
K. pneumoniae = format: cell-based, Klebsiella pneumoniae; conditions: for fold induction at 50 µM: Klebsiella pneumoniae, 3 h
P. aeruginosa = format: cell-based, Pseudomonas aeruginosa; conditions: for fold induction at 50 µM: Pseudomonas aeruginosa, 3 h
[1] = tested on: S. aureus strain USA300-0114; format: cell-based, Staphylococcus aureus; conditions: for fold induction at 50 µM: Staphylococcus aureus, USA300, 3 h
E. cloacae = format: cell-based, Enterobacter cloacae; conditions: for fold induction at 50 µM: Enterobacter cloacae, 3 h
[2] = tested on: A. baumannii strain 98-37-09; format: cell-based, Acinetobacter baumannii; conditions: for fold induction at 50 µM: Acinetobacter baumannii, 983709, 3 h
[3] = planktonic E. faecium, 50 μM final drug concentration, 384-well, cutoff for positive-scoring molecules 3-fold increase, read-out: AK-based Prestwick Library Screening Results: E. faecium (increase in extracellular AK activity)
[4] = planktonic E. coli, 50 μM final drug concentration, 384-well, cutoff for positive-scoring molecules 3-fold increase, read-out: AK-based Prestwick Library Screening Results: E. coli (increase in extracellular AK activity)
[5] = planktonic K. pneumoniae, 50 μM final drug concentration, 384-well, cutoff for positive-scoring molecules 3-fold increase, read-out: AK-based Prestwick Library Screening Results: K. pneumoniae (increase in extracellular AK activity)
[6] = planktonic P. aeruginosa, 50 μM final drug concentration, 384-well, cutoff for positive-scoring molecules 3-fold increase, read-out: AK-based Prestwick Library Screening Results: P. aeruginosa (increase in extracellular AK activity)
[7] = planktonic S. aureus, 50 μM final drug concentration, 384-well, cutoff for positive-scoring molecules 3-fold increase, read-out: AK-based Prestwick Library Screening Results: S. aureus (increase in extracellular AK activity)
[8] = planktonic E. cloacae, 50 μM final drug concentration, 384-well, cutoff for positive-scoring molecules 3-fold increase, read-out: AK-based Prestwick Library Screening Results: E. cloacae (increase in extracellular AK activity)
[9] = planktonic A. baumannii, 50 μM final drug concentration, 384-well, cutoff for positive-scoring molecules 3-fold increase, read-out: AK-based Prestwick Library Screening Results: A. baumannii (increase in extracellular AK activity)
[10] = 50 μM final drug concentration, 384-well format, cutoff for positive-scoring molecules 3-fold increase, read-out: AK-based Prestwick Library Screening Results, E. faecium (increase in extracellular AK activity)
[11] = 50 μM final drug concentration, 384-well format, cutoff for positive-scoring molecules 3-fold increase, read-out: AK-based Prestwick Library Screening Results, E. coli (increase in extracellular AK activity)
[12] = 50 μM final drug concentration, 384-well format, cutoff for positive-scoring molecules 3-fold increase, read-out: AK-based Prestwick Library Screening Results, K. pneumoniae (increase in extracellular AK activity)
[13] = 50 μM final drug concentration, 384-well format, cutoff for positive-scoring molecules 3-fold increase, read-out: AK-based Prestwick Library Screening Results, P. aeruginosa (increase in extracellular AK activity)
[14] = 50 μM final drug concentration, 384-well format, cutoff for positive-scoring molecules 3-fold increase, read-out: AK-based Prestwick Library Screening Results, S. aureus (increase in extracellular AK activity)
[15] = 50 μM final drug concentration, 384-well format, cutoff for positive-scoring molecules 3-fold increase, read-out: AK-based Prestwick Library Screening Results, E. cloacae (increase in extracellular AK activity)
[16] = 50 μM final drug concentration, 384-well format, cutoff for positive-scoring molecules 3-fold increase, read-out: AK-based Prestwick Library Screening Results, A. baumannii (increase in extracellular AK activity)
[17] = 50 μM final drug concentration, planktonic, […]
[18] = 50 μM final drug concentration, planktonic, […], read-out: AK-based Prestwick Library Screening Results, E. faecium (fold increase in extracellular AK activity)
[19] = 50 μM final drug concentration, planktonic, […], read-out: AK-based Prestwick Library Screening Results, E. coli (fold increase in extracellular AK activity)
[20] = 50 μM final drug concentration, planktonic, […], read-out: AK-based Prestwick Library Screening Results, K. pneumoniae (fold increase in extracellular AK activity)
[21] = 50 μM final drug concentration, planktonic, […], read-out: AK-based Prestwick Library Screening Results, P. aeruginosa (fold increase in extracellular AK activity)
[22] = 50 μM final drug concentration, planktonic, […], read-out: AK-based Prestwick Library Screening Results, S. aureus (fold increase in extracellular AK activity)
[23] = 50 μM final drug concentration, planktonic, […], read-out: AK-based Prestwick Library Screening Results, E. cloacae (fold increase in extracellular AK activity)
[24] = 50 μM final drug concentration, planktonic, […], read-out: AK-based Prestwick Library Screening Results, A. baumannii (fold increase in extracellular AK activity)

COC(=O)C1=C(C)NC(C)=C(C(=O)OC)C1c1ccccc1[N+](=O)[O-] [Nifedipine] gave a fold induction at 50 µM (E. faecium; [3]) of 0.9, a fold induction at 50 µM (E. coli; [4]) of 1.4 and a fold induction at 50 µM (K. pneumoniae; [5]) of 0.9. It also gave a fold induction at 50 µM (P. aeruginosa; [6]) of 1, a fold induction at 50 µM [1, 7] of 0.5 and a fold induction at 50 µM (E. cloacae; [8]) of 1.4. For the same compound, the fold induction at 50 µM [2, 9] was 1.5.
With C[C@]12CC[C@@H](O)C[C@@H]1CC[C@@H]1[C@@H]2CC[C@]2(C)C(=O)CC[C@@H]12 [Androsterone] the fold induction at 50 µM (E. faecium; read-out: AK-based Prestwick Library Screening Results, E. faecium (increase in extracellular AK activity)) was 1, the fold induction at 50 µM (E. coli; read-out: AK-based Prestwick Library Screening Results, E. coli (increase in extracellular AK activity)) was 0.6 and the fold induction at 50 µM (K. pneumoniae; read-out: AK-based Prestwick Library Screening Results, K. pneumoniae (increase in extracellular AK activity)) was 0.5. The fold induction at 50 µM (P. aeruginosa; read-out: AK-based Prestwick Library Screening Results, P. aeruginosa (increase in extracellular AK activity)) was 0.6, the fold induction at 50 µM ([1]; read-out: AK-based Prestwick Library Screening Results, S. aureus (increase in extracellular AK activity)) was 0.5 and the fold induction at 50 µM (E. cloacae; read-out: AK-based Prestwick Library Screening Results, E. cloacae (increase in extracellular AK activity)) was 0.7. It also gave a fold induction at 50 µM ([2]; read-out: AK-based Prestwick Library Screening Results, A. baumannii (increase in extracellular AK activity)) of 0.7.
Compound C#C[C@]1(O)CC[C@H]2[C@@H]3CCC4=C(CCC(=O)C4)[C@H]3CC[C@@]21C [Norethynodrel] has a fold induction at 50 µM (E. faecium; [10]) of 0.9, a fold induction at 50 µM (E. coli; [11]) of 0.9 and a fold induction at 50 µM (K. pneumoniae; [12]) of 0.7. It also gave a fold induction at 50 µM (P. aeruginosa; [13]) of 0.8, a fold induction at 50 µM [1, 14] of 0.7 and a fold induction at 50 µM (E. cloacae; [15]) of 1. For the same compound, the fold induction at 50 µM [2, 16] was 0.7.
Work on COc1ccc(OC)c(C(O)CNC(=O)CN)c1 (centres unmarked) [Midodrine hydrochloride] yielded a fold induction at 50 µM (E. faecium; [10]) of 1, a fold induction at 50 µM (E. coli; [11]) of 1 and a fold induction at 50 µM (K. pneumoniae; [12]) of 0.7. For the same compound, the fold induction at 50 µM (P. aeruginosa; [13]) was 0.9, the fold induction at 50 µM [1, 14] was 0.9 and the fold induction at 50 µM (E. cloacae; [15]) was 1. The fold induction at 50 µM [2, 16] was 0.9.
For Cc1cc(C(C)(C)C)c(O)c(C)c1CC1=NCCN1 [Oxymetazoline hydrochloride], the fold induction at 50 µM (E. faecium; [3]) was 1, the fold induction at 50 µM (E. coli; [4]) was 1.1 and the fold induction at 50 µM (K. pneumoniae; [5]) was 1.1. The fold induction at 50 µM (P. aeruginosa; [6]) was 1.2, the fold induction at 50 µM [1, 7] was 1.1 and the fold induction at 50 µM (E. cloacae; [8]) was 1.3. It also gave a fold induction at 50 µM [2, 9] of 1.4.
For CC[C@@H](C)C(=O)O[C@H]1[C@H](O)[C@H]2[C@@H](CN3C[C@@H](C)CC[C@H]3[C@@]2(C)O)[C@@H]2C[C@]34O[C@]5(O)[C@@H](OC(=O)[C@@](C)(O)CC)CC[C@@]3(C)[C@@H]5[C@@H](OC(C)=O)[C@@H](OC(C)=O)[C@H]4[C@@]21O [Protoveratrine A], the “AK-based Prestwick Library Screening Results, E. faecium (fold increase in extracellular AK activity)” value (E. faecium; [17]) was 1.0, the “AK-based Prestwick Library Screening Results, E. coli (fold increase in extracellular AK activity)” value (E. coli; [17]) was 1.1 and the “AK-based Prestwick Library Screening Results, K. pneumoniae (fold increase in extracellular AK activity)” value (K. pneumoniae; [17]) was 1.2. For the same compound, the “AK-based Prestwick Library Screening Results, P. aeruginosa (fold increase in extracellular AK activity)” value (P. aeruginosa; [17]) was 1.1, the “AK-based Prestwick Library Screening Results, S. aureus (fold increase in extracellular AK activity)” value [1, 17] was 1.2 and the “AK-based Prestwick Library Screening Results, E. cloacae (fold increase in extracellular AK activity)” value (E. cloacae; [17]) was 1.3. The “AK-based Prestwick Library Screening Results, A. baumannii (fold increase in extracellular AK activity)” value [2, 17] was 1.2.
Work on C[C@]12CC[C@H](O)C[C@H]1CC[C@@H]1[C@@H]2C[C@@H](O)[C@]2(C)[C@@H](C3=CC(=O)OC3)CC[C@]12O [Digoxigenin] yielded a fold induction at 50 µM (E. faecium; 50 μM final drug concentration, planktonic, cutoff for positive-scoring molecules 3-fold increase, read-out: AK-based Prestwick Library Screening Results, E. faecium (fold increase in extracellular AK activity)) of 0.8, a fold induction at 50 µM (E. coli; 50 μM final drug concentration, planktonic, cutoff for positive-scoring molecules 3-fold increase, read-out: AK-based Prestwick Library Screening Results, E. coli (fold increase in extracellular AK activity)) of 0.7 and a fold induction at 50 µM (K. pneumoniae; 50 μM final drug concentration, planktonic, cutoff for positive-scoring molecules 3-fold increase, read-out: AK-based Prestwick Library Screening Results, K. pneumoniae (fold increase in extracellular AK activity)) of 0.6. The fold induction at 50 µM (P. aeruginosa; 50 μM final drug concentration, planktonic, cutoff for positive-scoring molecules 3-fold increase, read-out: AK-based Prestwick Library Screening Results, P. aeruginosa (fold increase in extracellular AK activity)) was 0.5, the fold induction at 50 µM ([1]; 50 μM final drug concentration, planktonic, cutoff for positive-scoring molecules 3-fold increase, read-out: AK-based Prestwick Library Screening Results, S. aureus (fold increase in extracellular AK activity)) was 0.6 and the fold induction at 50 µM (E. cloacae; 50 μM final drug concentration, planktonic, cutoff for positive-scoring molecules 3-fold increase, read-out: AK-based Prestwick Library Screening Results, E. cloacae (fold increase in extracellular AK activity)) was 0.7. For the same compound, the fold induction at 50 µM ([2]; 50 μM final drug concentration, planktonic, cutoff for positive-scoring molecules 3-fold increase, read-out: AK-based Prestwick Library Screening Results, A. baumannii (fold increase in extracellular AK activity)) was 0.6.
CCN1CCC[C@H]1CNC(=O)c1c(OC)ccc(Br)c1OC [Remoxipride Hydrochloride] gave a fold induction at 50 µM (E. faecium; 50 μM final drug concentration, cutoff for positive-scoring molecules 3-fold increase, read-out: AK-based Prestwick Library Screening Results, E. faecium (fold increase in extracellular AK activity)) of 0.9, a fold induction at 50 µM (E. coli; 50 μM final drug concentration, cutoff for positive-scoring molecules 3-fold increase, read-out: AK-based Prestwick Library Screening Results, E. coli (fold increase in extracellular AK activity)) of 0.7 and a fold induction at 50 µM (K. pneumoniae; 50 μM final drug concentration, cutoff for positive-scoring molecules 3-fold increase, read-out: AK-based Prestwick Library Screening Results, K. pneumoniae (fold increase in extracellular AK activity)) of 0.6. The fold induction at 50 µM (P. aeruginosa; 50 μM final drug concentration, cutoff for positive-scoring molecules 3-fold increase, read-out: AK-based Prestwick Library Screening Results, P. aeruginosa (fold increase in extracellular AK activity)) was 0.7, the fold induction at 50 µM ([1]; 50 μM final drug concentration, cutoff for positive-scoring molecules 3-fold increase, read-out: AK-based Prestwick Library Screening Results, S. aureus (fold increase in extracellular AK activity)) was 0.6 and the fold induction at 50 µM (E. cloacae; 50 μM final drug concentration, cutoff for positive-scoring molecules 3-fold increase, read-out: AK-based Prestwick Library Screening Results, E. cloacae (fold increase in extracellular AK activity)) was 0.8. It also gave a fold induction at 50 µM ([2]; 50 μM final drug concentration, cutoff for positive-scoring molecules 3-fold increase, read-out: AK-based Prestwick Library Screening Results, A. baumannii (fold increase in extracellular AK activity)) of 0.7.
For COc1cc2c(cc1O)[C@@H]1Cc3ccc(OC)c(O)c3CN1CC2 [Scoulerine], the fold induction at 50 µM (E. faecium; [18]) was 1, the fold induction at 50 µM (E. coli; [19]) was 1.2 and the fold induction at 50 µM (K. pneumoniae; [20]) was 1. It also gave a fold induction at 50 µM (P. aeruginosa; [21]) of 1.1, a fold induction at 50 µM [1, 22] of 1 and a fold induction at 50 µM (E. cloacae; [23]) of 1.6. The fold induction at 50 µM [2, 24] was 1.3.
CC(C)[C@@]1(NC(=O)[C@@H]2C[C@@H]3c4cccc5[nH]cc(c45)C[C@H]3N(C)C2)O[C@@]2(O)[C@@H]3CCCN3C(=O)[C@H](Cc3ccccc3)N2C1=O [Dihydroergocristine mesylate] gave a fold induction at 50 µM (E. faecium; [3]) of 0.9, a fold induction at 50 µM (E. coli; [4]) of 0.7 and a fold induction at 50 µM (K. pneumoniae; [5]) of 0.6. For the same compound, the fold induction at 50 µM (P. aeruginosa; [6]) was 0.6, the fold induction at 50 µM [1, 7] was 0.5 and the fold induction at 50 µM (E. cloacae; [8]) was 0.6. The fold induction at 50 µM [2, 9] was 0.7.
In the case of c1cncc(C2=NCCC2)c1 [Myosmine], the fold induction at 50 µM (E. faecium; [18]) is reported as 0.9, the fold induction at 50 µM (E. coli; [19]) is reported as 0.5 and the fold induction at 50 µM (K. pneumoniae; [20]) is reported as 0.5. It also gave a fold induction at 50 µM (P. aeruginosa; [21]) of 0.4, a fold induction at 50 µM [1, 22] of 0.4 and a fold induction at 50 µM (E. cloacae; [23]) of 0.4. For the same compound, the fold induction at 50 µM [2, 24] was 0.5.

— patent US10004701B2, “Methods and compositions for treating infection” (UNIVERSITY OF ROCHESTER, priority 2012, dated 2018)
